{
  "source": "patent US6147107A",
  "about": "“Specific inhibition of the P42/44 mitogen activated protein (map) kinase cascade sensitizes tumor cells” (priority 1998, dated 2000)",
  "key": {"[1]": {"test_system": "HL-60 cells", "assay": "DNA strand breakage in HL-60 cells", "assay_type": "cell-based, human", "conditions": "ara-C (10 μM) + PD98059 (2.5 μM), 6 hours", "method": "(§1) FIGS. 9a and 9b. […] HL-60 cells were exposed to ara-C (10 μM) in the absence or presence of aminomethoxyflavone (PD98059; 2.5 μM) for 6 hours. Apoptotic DNA damage and cell death were assessed as described in Methods. […] FIG. 9b.\nQuantitative Analysis of DNA Damage: The formation and release of DNA fragments and the corresponding breakage of bulk DNA were assessed by bisbenzamide spectrofluorophtometry. To measure intracellular DNA fragments, pelleted cells (4×10^6 cells/pellet in quadruplicate)were resuspended in PBS and lysed by addition of 5 mM Tris-HCl, 30 mM EGTA, 30 mM EDTA, 0.1% Triton X-100, pH 8 (yielding a final density of 10^7 cells,ml) with gentle mechanical agitation. The lysates were centrifuged at 30,000× g at 4° C. for 40 minutes. […] The pellets were discarded and the presence of non-sedimenting DNA fragments in the supernatant from the lysate and medium extracts was quantified following dilution in modified Tris-sodium EGTA buffer (3 mM NaCl, 10 mM Tris-HCl, 1 mM EGTA, pH 8) by spectrofluorophotometry in the presence of Hoechst-33258 (1 μg/ml; μex=365, λem=460). Net fluorescence was directly proportional to the presence of DNA fragments; final values were calculated relative to a highly purified calf thymus DNA calibration standard, and are expressed as ng/μg DNA recovered or released from 10^6 cells. […]"}, "[2]": {"test_system": "MEK1 and MEK2", "assay": "Inhibition of Raf-mediated phosphorylation/activation of MEK1/2", "assay_type": "biochemical"}, "[3]": {"test_system": "HL-60 cells", "assay": "Taxol-mediated apoptosis of HL-60 cells"}, "[4]": {"test_system": "HL-60 cells", "assay": "Clonogenicity of HL-60 cells", "assay_type": "cell-based, human", "method": "as §1\nDetermination of Clonogenicity: Pelleted cells were rinsed extensively and prepared for soft-agar cloning. Cells were resuspended in cold PBS and seeded in 35-mm culture plates at a fixed density (400 cell/ml/well) in complete RPMI-1640 medium containing 20% fetal calf serum, 10% 5637-CM, and 0.3% Bacto agar. Cultures were mainatined for 10 to 12 days before formation of colonies (defined as groups of ≥50 cells) was scored."}, "[5]": {"test_system": "HL-60 cells", "assay": "Apoptosis of HL-60 cells (ara-C)", "assay_type": "cell-based, human", "method": "as §1"}, "[6]": {"test_system": "A431 cells"}, "[7]": {"test_system": "cancer cells", "assay": "Radiosensitization of cancer cells", "assay_type": "cell-based", "conditions": "general statement"}, "[8]": {"test_system": "MEK1 and MEK2", "conditions": "general statement on known inhibitors; cited from earlier work"}, "[9]": {"test_system": "p42/44 MAP kinase cascade", "assay": "Inhibition of p42/44 MAP kinase cascade activity in A431 cells", "assay_type": "cell-based, human", "conditions": "PD98059, 1 Gy", "method": "(§2) Determination of MAPK Activity: Pelleted cells were rinsed in PBS, repelleted, and flash-frozen. Cell pellets were lysed in 25 mM Hepes, pH 7.4 containing 5 mM EGTA, 5 mM EDTA, supplemented with protease inhibitors (5 mM benzamidine, 1 mM phenylmethylsulfonylfluoride, 1 mg/ml soybean trypsin inhibitor, 40 μg/ml aprotinin, 1 μM microcystin LR) phosphatase inhibitors (0.5 mM trisodium orthovanadate, 0.5 mM tetrasodium pyrophosphate), and containing 0.056% sodium deoxycholate w/v, 1% Triton X-100 v/v, and 0.1% 2-mercaptoethanol v/v. Lysates were clarified by centrifugation at 5,000× g at 4° C. for 5 min. MAPK activity was assayed using MBP as a substrate following immunoprecipitation of p42/44 MAP kinase with protein A/agarose-conjugated antibody/antisera. Preimmune controls were also run to ensure selectivity of substrate phosphorylation. Reaction mixtures consisted of immunoprecipitated enzyme, substrate, and [γ-^32 P] ATP ([…]) in 25 mM Hepes, pH 7.4 containing 15 mM MgCl2, […], 0.01% (v/v) 2-mercaptoethanol, 1 μM […]. Reactions were initiated by the addition of substrate. MAPK reactions were terminated by transfer to p81 filter paper; filters were rinsed repeatedly in 185 mM orhtophosphoric acid, and then dehydrated in acetone. Total radioactivity in filters was determined by liquid scintillometry."}, "[10]": {"test_system": "A431 cells", "assay": "Propidium iodide staining (necrosis/cell integrity) of A431 cells after radiation", "assay_type": "cell-based, human", "conditions": "PD98059 + 1 Gy; data not shown"}, "[11]": {"test_system": "p42/44 MAP kinase", "assay": "MAP kinase activity in HL-60 cells (immunoprecipitation, MBP substrate)", "assay_type": "cell-based, human", "method": "FIG. 8. […] HL-60 cells were exposed to ara-C (10 μM) in the absence or presence of aminomethoxyflavone (PD98059; 2.5 μM) for 3 hours. MAP kinase activity (p42-ERK1/p44-ERK2) was determined by in vitro assay. In each case, values reflect the mean ±SE of duplicate determinations, and are expressed as a percentage of basal activity present in untreated controls.\nas §2\nHL-60 cells were exposed to ara-C in the absence or presence of PD98059. Following this treatment, the cells were eveluated for MAP kinase activity, DNA strand breakage, clonogenicity potential and extent of apoptosis."}, "[12]": {"test_system": "A431 cells", "assay": "TUNEL assay, apoptosis of A431 cells after radiation", "assay_type": "cell-based, human", "method": "The ability of the cells to survive was assessed using TUNEL assays 24 hours after irradiation and the results are depicted in FIG. 4."}, "[13]": {"test_system": "A431 cells", "assay": "[3H]thymidine incorporation into DNA of A431 cells", "assay_type": "cell-based, human", "conditions": "PD98059 alone, over 96 hours; not shown"}, "[14]": {"conditions": "ara-C (10 μM) + PD98059 (2.5 μM), 6 hours"}},
  "note": "Entries after “also recorded” stand apart in the source; their conditions may differ. Read-outs that look alike come from different tables or passages of the source.",
  "data": [
    {"smiles": "COc1cccc(-c2cc(=O)c3ccccc3o2)c1N", "note": "[PD98059, 2'-amino-3'-methoxy-flavone]", "values": [
      {"measurement": "DNA strand breakage induced by ara-C", "setting": "[1]", "value": "substantially increased"},
      {"measurement": "inhibition of MEK1 and MEK2", "setting": "[2]; general statement", "value": "all inhibit MEK1 and MEK2"},
      {"measurement": "inhibition of Raf phosphorylation of MEK1 and MEK2", "setting": "[2]; stated as demonstrated by the applicant", "value": "inhibiting the ability of Raf protein kinases to phosphorylate MEK1 and MEK2"},
      {"measurement": "cytotoxicity at 10 µM", "setting": "[3]; Homo sapiens, HL-60, 15 h, read-out: apoptotic cells, PD98059 alone", "value": "6 to 7", "unit": "%"},
      {"measurement": "cell death, taxol plus PD98059", "setting": "[3]; taxol 0.5 μM + PD98059 10 μM", "value": 58, "unit": "%"},
      {"measurement": "clonogenic potential", "setting": "[4]; [14]", "value": "practically nullified"},
      {"measurement": "clonogenic potential, single agent", "setting": "[4]; either agent alone", "value": "neither alone had this effect"},
      {"measurement": "potentiation of apoptotic activity of ara-C", "setting": "[5]; PD98059 + ara-C", "value": "Potentiation of ara-C-induced apoptosis; also recorded: highly effective"},
      {"measurement": "extent of apoptosis attributable to ara-C action", "setting": "[5]; [14]", "value": "dramatically increased"},
      {"measurement": "cellular proliferation (MTT)", "setting": "[6]; 5, 10 or 20 μM PD98059 + 1 Gy", "value": "markedly decreased cellular proliferation"},
      {"measurement": "enhancement ratios (MTT)", "setting": "[6]; PD98059 + 1 Gy", "value": "at least threefold"},
      {"measurement": "proliferative rate (MTT)", "setting": "[6]; PD98059 + 1 Gy radiation, 4-8 days", "value": "Decreased proliferative rate"},
      {"measurement": "proliferative capacity versus either exposure or treatment alone (MTT)", "setting": "[6]; PD98059 + radiation, 4-8 days", "value": "large reduction in proliferative capacity"},
      {"measurement": "proliferative rate (MTT)", "setting": "[6]; PD98059 alone, 4-8 days", "value": "Decreased proliferative rate"},
      {"measurement": "radiosensitization of cancer cells", "setting": "[7]", "value": "all cause radiosensitization of cancer cells"},
      {"measurement": "mode of action at MEK1/2", "setting": "[8]", "value": "bind to MEK1/2 and sterically prevent Raf from binding"},
      {"measurement": "correlation of MAP kinase cascade inhibition with potentiation of cell death", "setting": "[9]", "value": "correlated with its dose-dependent ability to potentiate cell death"},
      {"measurement": "potentiation of cell death (propidium iodide staining of unfixed cells)", "setting": "[10]", "value": "large potentiation of cell death"},
      {"measurement": "MAP kinase activity", "setting": "[11]; 2.5 μM PD98059, with or without ara-C (10 μM), 3 hours", "value": "Suppression of MAP kinase activity"},
      {"measurement": "suppression of ara-C-related stimulation of MAP kinase", "setting": "[11]; 5 μM PD98059 + ara-C", "value": "completely suppresses"},
      {"measurement": "basal MAP kinase activity", "setting": "[11]; 1-100 μM PD98059, acute exposure", "value": "pronounced concentration-related decline"},
      {"measurement": "Emax", "setting": "[11]; Homo sapiens, HL-60, 1-100 μM PD98059, read-out: maximal decrease of basal MAP kinase activity", "value": "≥ 65", "unit": "%"},
      {"measurement": "EC50", "setting": "[11]; Homo sapiens, HL-60, PD98059, acute exposure, read-out: EC50, decline of basal MAP kinase activity", "value": "≤ 5", "unit": "µM"},
      {"measurement": "enhancement ratio, co-treatment versus either radiation or PD98059 alone", "setting": "[12]; 5 μM PD98059 + 1 Gy", "value": "approximately threefold"},
      {"measurement": "percentage of cells exhibiting double stranded DNA breaks", "setting": "[12]; 5 μM PD98059 + 1 Gy, increased from ~4 to 15", "value": "4-15%"},
      {"measurement": "amount of cell killing compared to either treatment alone", "setting": "[12]; 5 μM PD98059 + single 1 Gy exposure", "value": "tripled"},
      {"measurement": "potentiation of cell death (TUNEL)", "setting": "[12]; 5, 10 and 20 μM PD98059 + 1 Gy radiation", "value": "large potentiation of cell death"},
      {"measurement": "effect upon the basal levels of cell viability", "setting": "[12]; PD98059 alone, low concentrations, 24 hours", "value": "small non-significant detrimental effect"},
      {"measurement": "proliferative capacity ([3H]thymidine incorporation)", "setting": "[13]", "value": "overall dose-dependent decrease in proliferative capacity"}
    ]}
  ]
}
